This note sets out measurements from patent publication US7576125B2, “Melanogenesis inhibitor and skin preparation containing the same” (Takasago International Corporation, priority 2003, dated 2009).

What all share (type): cell-based
Data set [1] has as its system B16 melanoma cells. The data set can be described thus: Melanogenesis inhibition test (visual evaluation) using B16 melanoma cells. To be noted: 3 days culture. As for the experimental part: The following tests a) and b) were conducted on the compounds shown in Synthesis Examples and Comparative Synthesis Examples to examine their melanogenesis-inhibiting effects. • a) Cytotoxicity test (using B16 melonoma cells) • b) Melanogenesis inhibition test (visual evaluation) (using B16 melonoma cells) Evaluation Methods
8×10^4 B16 melanoma cells were inoculated in a plastic-made culture flask (25 cm^2). The cells were cultured in a 10% serum-containing DMEN medium (produced by Nissui Pharmaceutical co., Ltd., trade name) in the presence of 5% carbon dioxide at 37° C. 3 days later, a test sample diluted with ethanol was added thereto, and culture was conducted for 3 days. After the completion of the culture, the medium was removed and the flask contents were washed with a phosphate buffer solution (hereinafter referred t as PBS). The cells were peeled from the flask inner wall using a medium containing trypsin and EDTA (ethylenediaminetetraacetic acid). The resulting cells suspension was centrifuged to recover cells. Part of the cells was taken and the number of cells was measured using a Coulter counter. […] A melanogenesis inhibition test was carried out in this concentration range. The cells obtained were washed once with PBS and then the whiteness of the precipitate was rated visually based on the following evaluation standard.
Evaluation Standard • −: Same as the solvent control (black) • +−: Slightly different from the solvent control (black-gray) • +: Clearly different from the solvent control (gray) • ++: Coloring of cells is very low (gray-white) • +++: No coloring of cells (white)

For data set [2], the system named is B16 melanoma cells. Put plainly: Cell propagation rate / cytotoxicity by MTT method on parallel plate. (In general: Formazan colour is commonly taken as a measure of viable cells.)
Data set [3] relates to tyrosinase biosynthesis in B16 melanoma cells. The data set can be described thus: Tyrosinase biosynthesis hindrance test (intra-cell tyrosinase activity). To be noted: 2 days. As to the method: A tyrosinase activity hindrance test and a tyrosinase biosynthesis hindrance test were conducted according to the following test methods to examine the mechanism for hindrance of melanin denovo synthesis. […] In this method, tyrosinase biosynthesis hindrance is indicated indirectly by measuring intra-cell tyrosinase activity. 100 μl of a suspension containing 3×10^5/ml of B16 melanoma cells was inoculated into a 96-well plate, and culture was made at 37° C. overnight in 5% CO2. Next day, the medium was changed with 200 μl of a sample-containing culture medium, and culture was made for 2 days under the same conditions. Thereafter, the supernatant liquid was removed and the residue was washed with 200 μl of a phosphate buffer solution twice. Then, 100 μl of 1% Triton X100 was added and the mixture was allowed to stand at room temperature for 1 hour, followed by gentle shaking. Next, 100 μl of 1% DOPA was added. Measurement was made in the same manner as in the above test method for tyrosinase activity hindrance.

Consider `CCCCOCc1ccc2c(c1)OCO2` [Synthesis Example 2, piperonyl n-butyl ether], for which, in the data set with B16 melanoma cells [1] (Concentration 12.5 μg/ml), the “whiteness of the cell precipitate rated visually (melanogenesis inhibition)” value (“whiteness … (melanogenesis inhibition)” for short) is listed as “++”.

With `COCc1ccc2c(c1)OCO2` [Synthesis Example 3, Piperonyl methyl ether], the “whiteness … (melanogenesis inhibition)” value in the data set with B16 melanoma cells [1] (Concentration 12.5 μg/ml) is reported as “−”.

As for `CCOCc1ccc2c(c1)OCO2` [Synthesis Example 4, Piperonyl ethyl ether], the “whiteness … (melanogenesis inhibition)” value in the data set with B16 melanoma cells [1] (Concentration 12.5 μg/ml) is listed as “−”.

With `CCCOCc1ccc2c(c1)OCO2` [Synthesis Example 5, Piperonyl n-propyl ether], the “whiteness … (melanogenesis inhibition)” value in the data set on B16 melanoma cells [1] (Concentration 12.5 μg/ml) is reported as “+”.

Consider `CC(C)COCc1ccc2c(c1)OCO2` [Synthesis Example 6, Piperonyl isobutyl ether], for which, in the data set on B16 melanoma cells [1] (Concentration 12.5 μg/ml), the “whiteness … (melanogenesis inhibition)” value was “++”.

Turning to `CC(C)CCOCc1ccc2c(c1)OCO2` [Synthesis Example 7, Piperonyl isoamyl ether], the “whiteness … (melanogenesis inhibition)” value in the data set on B16 melanoma cells [1] (Concentration 12.5 μg/ml) was “++”.

For `CCCCCCOCc1ccc2c(c1)OCO2` [Synthesis Example 8, Piperonyl n-hexyl ether], in the data set on B16 melanoma cells [1] (Concentration 12.5 μg/ml), the “whiteness … (melanogenesis inhibition)” value is recorded as “++”.

Turning to `CCCCCCCCOCc1ccc2c(c1)OCO2` [Synthesis Example 9, Piperonyl n-octyl ether], the “whiteness … (melanogenesis inhibition)” value in the data set with B16 melanoma cells [1] (Concentration 6.3 μg/ml) and in the data set with B16 melanoma cells [1] (Concentration 12.5 μg/ml) was “+” throughout.

Take `O=c1cc(CO)occ1O` [kojic acid]: the “Cell propagation rate %” value in the data set with B16 melanoma cells [2] (50 ppm) turned out to be 100.8%; with B16 melanoma cells [2] (100 ppm), 97.3%; in the data set with B16 melanoma cells [2] (200 ppm) it was 96.2%. The “Tyrosinase biosynthesis hindrance, Hindrance %” value in data set [3] (50 ppm), in data set [3] (100 ppm) and in data set [3] (200 ppm) was 21.0% in each case.
